In general, IC50 refers to the concentration that gives 50% inhibition. Usually Ki stands for a dissociation constant, usually derived from enzyme kinetics or from competition with a known ligand. Lower therefore signals a stronger hold on the target.

Our source for the IC50, Ki and Inhibition values is ChEMBL document CHEMBL1131494, “Novel 17-azolyl steroids, potent inhibitors of human cytochrome 17 alpha-hydroxylase-C17,20-lyase (P450(17) alpha): potential agents for the treatment of prostate cancer” (J Med Chem, 1998).

Series [1] concerns the target T1, Steroid 17-alpha-hydroxylase/17,20 lyase (Homo sapiens, UniProt P05093).
T1 sequence (P05093 whole entry): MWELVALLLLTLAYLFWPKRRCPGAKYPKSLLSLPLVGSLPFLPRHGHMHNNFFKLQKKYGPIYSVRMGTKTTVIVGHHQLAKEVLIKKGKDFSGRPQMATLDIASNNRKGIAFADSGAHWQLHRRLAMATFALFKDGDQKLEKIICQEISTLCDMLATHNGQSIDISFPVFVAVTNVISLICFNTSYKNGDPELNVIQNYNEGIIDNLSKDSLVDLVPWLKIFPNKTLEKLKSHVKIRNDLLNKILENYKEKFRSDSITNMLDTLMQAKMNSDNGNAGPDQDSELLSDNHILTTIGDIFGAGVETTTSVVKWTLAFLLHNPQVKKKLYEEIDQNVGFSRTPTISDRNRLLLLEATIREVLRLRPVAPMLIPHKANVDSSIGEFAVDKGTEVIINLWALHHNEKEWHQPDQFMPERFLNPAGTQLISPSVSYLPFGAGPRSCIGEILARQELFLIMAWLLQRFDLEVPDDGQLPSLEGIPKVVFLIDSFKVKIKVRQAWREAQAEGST
The series is described as follows: Inhibition of human testicular microsomal cytochrome P450 17A1 at 150 nM; no inhibition.

Series [2] addresses T1, Steroid 17-alpha-hydroxylase/17,20 lyase. As to the kind of experiment: Inhibition of human testicular microsomal Cytochrome P450 17A1.
Series [3] has the same target.
Description: Binding affinity for Cytochrome P450 17A1 (17-alpha-hydroxypregnenolone Km=560 nM)
Series [4] has as its target T2, Steroid 17-alpha-hydroxylase/17,20 lyase (Rattus norvegicus, UniProt P11715).
T2 sequence (P11715 whole entry): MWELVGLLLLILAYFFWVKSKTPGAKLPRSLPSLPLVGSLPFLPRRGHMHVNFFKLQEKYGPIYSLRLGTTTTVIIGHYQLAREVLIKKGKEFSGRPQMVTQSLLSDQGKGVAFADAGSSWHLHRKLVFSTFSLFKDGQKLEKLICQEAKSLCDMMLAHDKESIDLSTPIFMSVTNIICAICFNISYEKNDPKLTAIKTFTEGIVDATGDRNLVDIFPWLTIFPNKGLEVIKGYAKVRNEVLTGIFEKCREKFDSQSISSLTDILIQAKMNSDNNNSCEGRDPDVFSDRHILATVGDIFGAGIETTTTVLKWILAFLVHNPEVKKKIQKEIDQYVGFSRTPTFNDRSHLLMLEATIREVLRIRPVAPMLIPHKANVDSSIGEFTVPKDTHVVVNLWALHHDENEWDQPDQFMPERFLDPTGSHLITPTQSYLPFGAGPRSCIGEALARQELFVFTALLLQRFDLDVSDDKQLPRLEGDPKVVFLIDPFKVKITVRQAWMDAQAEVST
As to the kind of experiment: Inhibition of rat Cytochrome P450 17A1.

The nature of series [5]: Inhibition of human steroid 5-alpha-reductase.
The target in series [6] is T1, Steroid 17-alpha-hydroxylase/17,20 lyase. The series is described as follows: Inhibition of human testicular microsomal cytochrome P450 17A1 at 150 nM; NI = No inhibition. The settings on record: 0.15 µM.
Series [7] concerns the target T2, Steroid 17-alpha-hydroxylase/17,20 lyase. As to the kind of experiment: Inhibition of rat cytochrome P450 17A1.
Series [8] addresses T1, Steroid 17-alpha-hydroxylase/17,20 lyase. This is another data set of the same source.
For series [9] the target is unchanged. The series is described as follows: Inhibition of human testicular microsomal cytochrome P450 17A1 at 150 nM; NI = No inhibition. The settings on record: 0.15 µM.

Turning to `C[C@]12CC[C@H](O)CC1=CCC1C2CC[C@]2(C)C(n3nccn3)=CCC12` (stereo partly drawn), in series [1], the IC50 result is given as “Not Active”.

For the compound `C[C@]12CCC(=O)C=C1CCC1C2CC[C@]2(C)C(n3cncn3)=CCC12` (stereo partly drawn), the IC50 in series [2] was found to be 55 nM; in series [4] it was 11 nM; in [5] it was 152 nM. Besides, the Ki in series [3] stood at 41 nM.

`C[C@]12CC[C@H](O)CC1=CCC1C2CC[C@]2(C)C(n3cnnn3)=CCC12` (stereo partly drawn): the Inhibition result in series [6] is “Not Active”.

Turning to `C[C@]12CCC(=O)C=C1CCC1C2CC[C@]2(C)C(n3ccnc3)=CCC12` (stereo partly drawn), the values for the concentration for half-maximal inhibition (IC50) in series [2], in series [4] and in series [5] were 7 nM, 8 nM and 142 nM, respectively. The compound also displayed a Ki in series [3] of 1.9 nM.

Take `C[C@]12CC[C@H](O)CC1=CC[C@@H]1[C@@H]2CC[C@]2(C)C(n3cncn3)=CC[C@@H]12`: the IC50 in [7] stood at 26 nM; in [2] it was 90 nM; in series [5] it was 160000 nM. Besides, the Ki in series [3] was determined as 23 nM.

For `C[C@]12CC[C@H](O)CC1=CCC1C2CC[C@]2(C)C(n3ccnc3)=CCC12` (stereo partly drawn), the IC50 in series [2] worked out at 8 nM; in series [4] it was 9 nM; in [5] it was 400000 nM. In addition, affinity in series [3] was put at a Ki of 1.2 nM.

`C[C@]12CCC(=O)C=C1CCC1C2CC[C@]2(C)C(n3ccnn3)=CCC12` (stereo partly drawn) returned a Ki in series [8] of 8 nM. In addition, the values for the IC50 in [7], in series [2] and in [5] were 9 nM, 19 nM and 198 nM, respectively.

Regarding `C[C@]12CC[C@H](O)CC1=CCC1C2CC[C@]2(C)C(n3ccnn3)=CCC12` (stereo partly drawn), the IC50 in series [2] worked out at 13 nM; in series [4], 10 nM; in series [5], 10000 nM. This compound had an inhibitory constant (Ki) in [3] of 1.4 nM.

Turning to `C[C@]12CC[C@H](O)CC1=CCC1C2CC[C@]2(C)C(n3ncnn3)=CCC12` (stereo partly drawn), in series [9], the Inhibition result is listed as “Not Active”.

`CC(C)(C)NC(=O)[C@H]1CC[C@H]2[C@@H]3CC[C@H]4NC(=O)C=C[C@]4(C)[C@H]3CC[C@]12C` [FINASTERIDE] came in with an IC50 in series [5] of 33 nM.
